Assay results published in patent US20090264492A1, “PHARMACEUTICAL COMPOSITION FOR THE TREATMENT OF A FUNGAL SKIN DISORDER AND A METHOD FOR THE PREPARATION THEREOF” (Stichting Voor de Technische Wetenschappen, priority 2006, published 2009).

Experiments:
[1] = production of 1O2 over the pH range; type: physicochemical; details: over the pH range used
[2] = test system: the fungus cultivated in suspension; test: binding of Sylsens B to the fungus cultivated in suspension / photodynamic effect with competing cations; type: cell-based, T. rubrum; details: in the presence of 5 mM CaCl2 at pH 5.2
Method: In the above experiments, deuteroporphyrin monomethylether (DP mme), an anionic porphyrin, was used as a control. […] The effect of calcium-ions was investigated by determining the photodynamic effect in the presence of 5 mM CaCl2 at pH 5.2. […] So, PDT may even be used to inactivate (kill) the growing fungus if measures are taken to prevent naturally present calcium from interfering with the treatment, in particular by using a chelating compound such as EDTA.

T. rubrum = test: PDT of T. rubrum on human stratum corneum (ex-vivo model), fungicidal effect; type: cell-based, Trichophyton rubrum; details: for relative frequency of the fungicidal effect: read day 8; for MIC (Minimum Inhibitory Concentration): 2 h incubation in water, 1 h 30 mW/cm^2 red light
Method: A polycarbonate membrane filter, 25 mm in diameter and a pore size of 2 μm (Whatman, Breda, The Netherlands) was placed in the central part of a 3 cm culture dish (Greiner, Alphen aan den Rijn, The Netherlands) filled with 5 ml of Malt Extract Agar (MEA). A circular piece of human stratum corneum (SC) with a diameter of 1 cm was subsequently placed on the membrane filter and both were gently brushed with a paintbrush dipped in 70% ethanol. A microconidia suspension isolated from Trichphyton rubrum (CBS nr. 304.60 obtained from Centraal Bureau voor Schimmelcultures, Utrecht, The Netherlands, and prepared as described by Smijs G. M. T. et al (2004) in “Photodynamic treatment of the dermatophyte Trichophyton Rubrum and its microconidia with porphyrin sensitizers. PhotoChemistry and PhotoBiology, 80, 197 - 202”) was diluted to 1000 CFU/ml and 15 μl was inoculated on the circular sheet of human SC. The dish was placed in an incubator at 28° C. and at 17 hours after spore inoculation photodynamic treatment (PDT) was applied.
At 17 hours after spore inoculation, the membrane filter with SC containing spore inoculates was transported from the MEA dish to a 3 cm culture dish filled with 1035 μl incubation medium. The incubation medium contained 1 ml of distilled water with an adjusted pH (3.5, 4.5, 5.2, or 7.4) and 35 μl of a Sylsens B stock solution (Buchem, Apeldoorn, the Nederland) . To optimize the contact of the inoculates with the incubation medium, the membrane filter with the SC was turned upside down during the incubation period of 2 hours. The incubation was performed under continuous shaking conditions. Shortly before the illumination period the membrane filter containing the SC was turned back (surface SC now faces the lamp). In all cases, the illumination time was 1 hour using a red light irradiance of 30 mW/cm^2. This corresponds to a light dose of 108 J/cm^2. After the illumination the membrane filter with the SC were transported to a fresh MEA dish, placed in a 28° C. incubator and fungal growth was followed for several weeks. Dark controls were included, i.e. the same procedure was carried out except that the inoculated microconidia on human skin were treated with solvent and/or photosensitizer in the dark. In the light controls, the microconidia were treated with solvent (only) in the presence of light. The efficacy of the treatment was expressed as a relative frequency of complete inactivation (killing) of fungal growth detected at day 8 after spore inoculation. This was assessed microscopically with the use of a Zeiss Axiovert 25 (Germany). […] The treatment effect was followed for a period of several months. Every experiment contained 4 to 6 duplicates of all conditions and the experiments were repeated 3 times at least.
PDT of T. rubrum 17 hours after spore inoculation using the ex-vivo model, different concentrations of Sylsens B and a different pH (water medium). The numbers indicate the relative frequency of the fungicidal effect^1. Numbers between brackets give the number of tests performed.
The experiment with Sylsens B was repeated more extensively, for a longer period of time and with more samples. More specifically, the photodynamic efficacy of Sylsens B towards T. rubrum was tested at 17 (FIG. 2a), 48 (FIG. 2b) and 72 hours (FIG. 2c) after spore inoculation on human SC, at the following incubation pH values: Filled diamonds: pH 3.5, filled squares: pH 5.2 and filled triangles: pH 7.4.

For `C[n+]1ccc(-c2c3nc(c(-c4cc[n+](C)cc4)c4ccc([nH]4)c(-c4cc[n+](C)cc4)c4nc(c(-c5ccccc5)c5ccc2[nH]5)C=C4)C=C3)cc1.[Cl-].[Cl-].[Cl-]` [Sylsens B, 5,10,15-tris(4-methylpyridinium)-20-phenyl-[21H,23H]-porphine trichloride], the “production of 1O2” value [1] was “substantially constant”, the “binding of Sylsens B to the fungus” value [2] was “eliminated binding” and the “relative frequency of the fungicidal effect” value (shortened to “relative frequency”) (T. rubrum; 0.5 μM, pH 3.5, illuminated, PDT 17 h after spore inoculation) was 0 (6). The “relative frequency” value (T. rubrum; 0.5 μM, pH 5.2, illuminated, PDT 17 h after spore inoculation) was 0 (3), the “relative frequency” value (T. rubrum; 0.5 μM, pH 7.4, illuminated, PDT 17 h after spore inoculation) was 0 (6) and the “relative frequency” value (T. rubrum; 1 μM, pH 3.5, dark control, 17 h after spore inoculation) was 0 (2). For the same molecule, the “relative frequency” value (T. rubrum; 1 μM, pH 3.5, illuminated, 17 h after spore inoculation) was 0 (6), the “relative frequency” value (T. rubrum; 1 μM, pH 5.2, dark control, 17 h after spore inoculation) was 0 (2) and the “relative frequency” value (T. rubrum; 1 μM, pH 5.2, illuminated, 17 h after spore inoculation) was 0 (3). The “relative frequency” value (T. rubrum; 1 μM, pH 7.4, dark control, 17 h after spore inoculation) was 0 (2), the “relative frequency” value (T. rubrum; 1 μM, pH 7.4, illuminated, 17 h after spore inoculation) was 0 (6) and the “relative frequency” value (T. rubrum; 5 μM, pH 3.5, dark control, 17 h after spore inoculation) was 0 (2). For the same molecule, the “relative frequency” value (T. rubrum; 5 μM, pH 3.5, illuminated, 17 h after spore inoculation) was 0.2 (10), the “relative frequency” value (T. rubrum; 5 μM, pH 5.2, dark control, 17 h after spore inoculation) was 0 (4) and the “relative frequency” value (T. rubrum; 5 μM, pH 5.2, illuminated, 17 h after spore inoculation) was 0.43 (7). For the same molecule, the “relative frequency” value (T. rubrum; 5 μM, pH 7.4, dark control, 17 h after spore inoculation) was 0 (6), the “relative frequency” value (T. rubrum; 5 μM, pH 7.4, illuminated, 17 h after spore inoculation) was 0.4 (12) and the “relative frequency” value (T. rubrum; 6 μM, pH 3.5, illuminated, 17 h after spore inoculation) was 0.5 (2). For the same molecule, the “relative frequency” value (T. rubrum; 6 μM, pH 5.2, illuminated, 17 h after spore inoculation) was 1 (4), the “relative frequency” value (T. rubrum; 6 μM, pH 7.4, dark control, 17 h after spore inoculation) was 0 (6) and the “relative frequency” value (T. rubrum; 6 μM, pH 7.4, illuminated, 17 h after spore inoculation) was 0.2 (12). For the same molecule, the “relative frequency” value (T. rubrum; 7 μM, pH 5.2, illuminated, 17 h after spore inoculation) was 1 (4), the “relative frequency” value (T. rubrum; 8 μM, pH 3.5, illuminated, 17 h after spore inoculation) was 0.75 (4) and the “relative frequency” value (T. rubrum; 8 μM, pH 5.2, illuminated, 17 h after spore inoculation) was 1 (4). The “relative frequency” value (T. rubrum; 8 μM, pH 7.4, dark control, 17 h after spore inoculation) was 0 (6), the “relative frequency” value (T. rubrum; 8 μM, pH 7.4, illuminated, 17 h after spore inoculation) was 0.6 (12) and the “relative frequency” value (T. rubrum; 9 μM, pH 5.2, illuminated, 17 h after spore inoculation) was 1 (4). For the same molecule, the “relative frequency” value (T. rubrum; 10 μM, pH 3.5, dark control, 17 h after spore inoculation) was 0 (2), the “relative frequency” value (T. rubrum; 10 μM, pH 3.5, illuminated, 17 h after spore inoculation) was 0.8 (10) and the “relative frequency” value (T. rubrum; 10 μM, pH 5.2, dark control, 17 h after spore inoculation) was 0 (4). For the same molecule, the “relative frequency” value (T. rubrum; 10 μM, pH 5.2, illuminated, 17 h after spore inoculation) was 1 (9), the “relative frequency” value (T. rubrum; 10 μM, pH 7.4, dark control, 17 h after spore inoculation) was 0 (6) and the “relative frequency” value (T. rubrum; 10 μM, pH 7.4, illuminated, 17 h after spore inoculation) was 0.6 (12). The “relative frequency” value (T. rubrum; 15 μM, pH 3.5, illuminated, 17 h after spore inoculation) was 1 (4), the “relative frequency” value (T. rubrum; 15 μM, pH 5.2, illuminated, 17 h after spore inoculation) was 1 (4) and the “relative frequency” value (T. rubrum; 15 μM, pH 7.4, dark control, 17 h after spore inoculation) was 0.5 (6). For the same molecule, the “relative frequency” value (T. rubrum; 15 μM, pH 7.4, illuminated, 17 h after spore inoculation) was 0.7 (12), the “relative frequency” value (T. rubrum; 20 μM, pH 3.5, dark control, 17 h after spore inoculation) was 0 (2) and the “relative frequency” value (T. rubrum; 20 μM, pH 3.5, illuminated, 17 h after spore inoculation) was 1 (4). The “relative frequency” value (T. rubrum; 20 μM, pH 5.2, dark control, 17 h after spore inoculation) was 0 (2), the “relative frequency” value (T. rubrum; 20 μM, pH 7.4, dark control, 17 h after spore inoculation) was 0.3 (6) and the “relative frequency” value (T. rubrum; 20 μM, pH 7.4, illuminated, 17 h after spore inoculation) was 0.6 (12). For the same molecule, the “relative frequency” value (T. rubrum; 30 μM, pH 3.5, dark control, 17 h after spore inoculation) was 0.5 (2), the “relative frequency” value (T. rubrum; 30 μM, pH 3.5, illuminated, 17 h after spore inoculation) was 1 (4) and the “relative frequency” value (T. rubrum; 30 μM, pH 5.2, dark control, 17 h after spore inoculation) was 1 (2). The “relative frequency” value (T. rubrum; 30 μM, pH 5.2, illuminated, 17 h after spore inoculation) was 1 (5), the “relative frequency” value (T. rubrum; 30 μM, pH 7.4, dark control, 17 h after spore inoculation) was 0.3 (6) and the “relative frequency” value (T. rubrum; 30 μM, pH 7.4, illuminated, 17 h after spore inoculation) was 0.6 (12). The “relative frequency” value (T. rubrum; 40 μM, pH 3.5, illuminated, 17 h after spore inoculation) was 1 (4), the “relative frequency” value (T. rubrum; 40 μM, pH 7.4, dark control, 17 h after spore inoculation) was 0 (6) and the “relative frequency” value (T. rubrum; 40 μM, pH 7.4, illuminated, 17 h after spore inoculation) was 1 (12). For the same molecule, the “relative frequency” value (T. rubrum; 50 μM, pH 3.5, dark control, 17 h after spore inoculation) was 0.5 (2), the “relative frequency” value (T. rubrum; 50 μM, pH 3.5, illuminated, 17 h after spore inoculation) was 1 (10) and the “relative frequency” value (T. rubrum; 50 μM, pH 5.2, dark control, 17 h after spore inoculation) was 1 (2). The “relative frequency” value (T. rubrum; 50 μM, pH 5.2, illuminated, 17 h after spore inoculation) was 1 (3), the “relative frequency” value (T. rubrum; 50 μM, pH 7.4, dark control, 17 h after spore inoculation) was 0.5 (6) and the “relative frequency” value (T. rubrum; 50 μM, pH 7.4, illuminated, 17 h after spore inoculation) was 0.9 (12). For the same molecule, the “relative frequency” value (T. rubrum; 65 μM, pH 3.5, dark control, 17 h after spore inoculation) was 1 (2), the “relative frequency” value (T. rubrum; 65 μM, pH 3.5, illuminated, 17 h after spore inoculation) was 1 (4) and the “relative frequency” value (T. rubrum; 65 μM, pH 7.4, dark control, 17 h after spore inoculation) was 1 (6). The “relative frequency” value (T. rubrum; 65 μM, pH 7.4, illuminated, 17 h after spore inoculation) was 1 (12), the “relative frequency” value (T. rubrum; 80 μM, pH 3.5, dark control, 17 h after spore inoculation) was 0.5 (4) and the “relative frequency” value (T. rubrum; 80 μM, pH 3.5, illuminated, 17 h after spore inoculation) was 1 (8). The “relative frequency” value (T. rubrum; 80 μM, pH 5.2, dark control, 17 h after spore inoculation) was 1 (2), the “relative frequency” value (T. rubrum; 80 μM, pH 5.2, illuminated, 17 h after spore inoculation) was 1 (3) and the “relative frequency” value (T. rubrum; 80 μM, pH 7.4, dark control, 17 h after spore inoculation) was 1 (6). For the same molecule, the “relative frequency” value (T. rubrum; 80 μM, pH 7.4, illuminated, 17 h after spore inoculation) was 1 (12), the “cfu in dark controls” value (T. rubrum; 17-hour stage after spore inoculation) was 8 to 12 cfu and the “cfu in dark controls” value (T. rubrum; 48-hour and 72 hour stage, concentrations higher than 80 μM) was 5 to 8 cfu. The “cfu in dark controls” value (T. rubrum; 48-hour and 72 hour stage, up to 80 μM Sylsens B) was 8 to 12 cfu, the “MIC (Minimum Inhibitory Concentration)” value (T. rubrum; pH 5.2, PDT 17 h after spore inoculation) was 5 to 6 µM and the “MIC (Minimum Inhibitory Concentration)” value (T. rubrum; pH 7.4, PDT 17 h after spore inoculation) was “≧50 μM”.
